The subject of assay [1] is mice. As to the kind of experiment: Indirect calorimetry. The following applies: BAY60-6583 1 mg/kg, i.p.; C57BL/6J mice.
The target in another assay is T1, mouse A1AR (Mus musculus, UniProt Q60612).
T1 sequence (Q60612 1-326): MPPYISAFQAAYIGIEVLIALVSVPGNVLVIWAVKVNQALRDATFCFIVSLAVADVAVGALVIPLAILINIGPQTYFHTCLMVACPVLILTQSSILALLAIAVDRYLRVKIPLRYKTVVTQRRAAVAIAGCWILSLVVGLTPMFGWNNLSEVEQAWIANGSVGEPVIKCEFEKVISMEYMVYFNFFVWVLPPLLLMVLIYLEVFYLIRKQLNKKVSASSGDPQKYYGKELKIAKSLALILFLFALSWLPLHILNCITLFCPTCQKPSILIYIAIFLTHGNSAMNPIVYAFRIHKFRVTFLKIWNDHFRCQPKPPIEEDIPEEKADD
As to the kind of experiment: Radioligand binding, mouse A1AR. To be noted: ratio of rat Ki to mouse Ki at A1AR.

For assay [2], the system named is mouse A2BAR. As to the kind of experiment: Cell-based assay at mouse A2BAR. The following applies: EC50 2.8 nM vs Ki 136 nM.
For a further assay, the target named is mouse A2AAR (Mus musculus, UniProt Q60613). The following applies: read-out: mouse Ki, A2AAR, ref Alnouri et al., 2015; cited from earlier work.
Sequence of mouse A2AAR (Q60613 whole entry): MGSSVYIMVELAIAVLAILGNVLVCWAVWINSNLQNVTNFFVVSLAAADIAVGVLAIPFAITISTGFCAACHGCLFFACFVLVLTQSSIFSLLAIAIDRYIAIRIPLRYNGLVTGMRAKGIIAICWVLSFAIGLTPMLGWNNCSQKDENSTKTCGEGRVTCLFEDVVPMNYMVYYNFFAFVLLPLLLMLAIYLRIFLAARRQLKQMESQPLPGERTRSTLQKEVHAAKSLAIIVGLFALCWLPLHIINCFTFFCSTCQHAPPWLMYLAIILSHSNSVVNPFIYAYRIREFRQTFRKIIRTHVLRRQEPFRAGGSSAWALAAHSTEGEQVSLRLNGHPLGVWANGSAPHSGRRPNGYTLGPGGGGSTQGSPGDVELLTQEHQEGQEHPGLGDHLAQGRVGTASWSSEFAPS
Assay [3] addresses serotonin transporter (SERT) (Homo sapiens, UniProt P31645). Nature of the assay: PDSP off-target radioligand binding, serotonin transporter.
Assay [4] concerns mice. Nature of the assay: Telemetric monitoring of Tb and physical activity in mice. The format is in vivo, mouse.
Assay [5] has as its system hypothalamic neurons (Fos). As to the kind of experiment: Drug-induced neuronal activation. The following applies: BAY60-6583 0.004 mg/kg i.c.v.; Adora1−/−;Adora3−/− mice; 1 h; vs vehicle. The format is in vivo, mouse.
For the next assay, the target named is A1AR. To be noted: read-out: rat Ki, A1AR, ref Alnouri et al., 2015; cited from earlier work.
Assay [6] relates to mouse A2BAR. The following applies: ref van der Hoeven et al., 2011, cited from earlier work.
The mark [7] stands for this setting: BAY60-6583 0.5–2 mg/kg, i.p., C57BL/6J mice.

Bounds are passed on as bounds.

Sequence of serotonin transporter (SERT) (P31645 whole entry): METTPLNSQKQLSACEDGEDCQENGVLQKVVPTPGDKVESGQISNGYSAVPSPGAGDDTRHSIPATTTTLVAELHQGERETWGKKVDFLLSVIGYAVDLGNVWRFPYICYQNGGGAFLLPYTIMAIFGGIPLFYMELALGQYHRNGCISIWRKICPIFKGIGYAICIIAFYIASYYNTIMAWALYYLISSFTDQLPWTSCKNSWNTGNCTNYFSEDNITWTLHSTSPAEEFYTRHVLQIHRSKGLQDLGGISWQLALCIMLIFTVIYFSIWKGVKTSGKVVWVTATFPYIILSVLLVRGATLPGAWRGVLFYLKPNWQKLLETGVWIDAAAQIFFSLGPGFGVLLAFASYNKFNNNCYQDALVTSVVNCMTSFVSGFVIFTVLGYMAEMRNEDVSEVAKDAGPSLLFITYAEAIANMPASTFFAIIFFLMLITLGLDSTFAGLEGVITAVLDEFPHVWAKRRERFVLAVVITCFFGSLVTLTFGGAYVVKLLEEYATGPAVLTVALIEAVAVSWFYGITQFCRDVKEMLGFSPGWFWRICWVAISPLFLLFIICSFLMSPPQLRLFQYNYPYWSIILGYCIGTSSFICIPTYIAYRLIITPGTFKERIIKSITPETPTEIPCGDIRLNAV

What is called Ki is the equilibrium dissociation constant of an inhibitor or competing ligand from its target. In general, EC50 refers to the concentration at which the effect is half-maximal. On to `N#Cc1c(N)nc(SCC(N)=O)c(C#N)c1-c1ccc(OCC2CC2)cc1` [BAY60-6583, 2-[6-amino-3,5-dicyano-4-[4-(cyclopropylmethoxy)phenyl]pyridin-2-ylsulfanyl]acetamide], for which the food intake entry with mice [1] is listed as “lowered”. The “metabolic rate (total energy expenditure)” value in the assay with mice [1] is reported as “lowered metabolic rate”. Further, the respiratory exchange ratio entry with mice [1] is on record as “lowered”. Moreover, the “A1AR rat: mouse ratio” value at mouse A1AR amounted to 1.5. Further, the “EC50 better than the binding affinity at A2BAR” value with mouse A2BAR [2] worked out at 50 fold. Further, the Ki at mouse A2AAR was over 10000 nM; in assay [3] it was 5600 nM; on A1AR it was 514 nM. For the same compound, the “Tb response (hypothermia)” value with mice [4] (BAY60-6583 0.004 mg/kg i.c.v., Adora1−/−;Adora3−/− mice) was “more modest effects”; in the assay on mice [4] (BAY60-6583 0.004 mg/kg, i.c.v., C57BL/6J (WT) mice), “caused hypothermia”; with mice [4] (BAY60-6583 0.04 mg/kg i.c.v., Adora1−/−;Adora3−/− mice), “profound, prolonged hypothermia”; in the assay on mice [4] (BAY60-6583 1 mg/kg, i.p., Adora2b−/− mice, 1 mg/kg), “completely abolished”; in the assay with mice [4] (BAY60-6583 1 mg/kg, i.p., KitW−sh/W−sh mice), “intact”; in the assay on mice [4] (setting [7]) it was “dose-dependent hypothermia”. Further, the “Tb response (hypothermia)” value in the assay on mice [4] (BAY60-6583 i.p., Adora1−/−;Adora3−/− mice, not shown) is “intact”. The physical activity entry in the assay on mice [4] (setting [7]) is reported as “hypoactivity”. Also, the “i.c.v. dose as fraction of a similarly hypothermic i.p. dose” value in the assay with mice [4] (BAY60-6583, i.c.v. vs i.p.) was 1/150. In assay [5], the “Fos immunoreactivity, dorsomedial hypothalamus (DMH)” value is “not significantly different”. In assay [5], the “Fos immunoreactivity, ventromedial hypothalamus (VMH)” value is recorded as “not significantly different”. The “Fos immunostaining, paraventricular hypothalamus (PVH)” value in [5] was “increased Fos immunostaining”. In [5], the “Fos immunostaining, preoptic area (POA)” value is recorded as “increased Fos immunostaining”. Moreover, the “adenosine receptor activation selectivity” value with mouse A2BAR [6] (not mouse A1AR, A2AAR, or A3AR) was “activate only mouse A2BAR”. Further, in the assay with mouse A2BAR [6] (read-out: EC50 at mouse A2BAR, cell-based assay), the EC50 was 2.8 nM.
